Test [1] deals with Serine/threonine-protein phosphatase PP1-alpha catalytic subunit (Homo sapiens, UniProt P62136). Nature of the test: inhibition of protein phosphatase 1 activity – biochemical, fluorescence, dose response (AID 2394).
A further test concerns the target Genome polyprotein (dengue virus type 2, UniProt P29990). Nature of the test: flavivirus cap methylation enzyme inhibition – biochemical, confirmation dose response, primary screen (AID 588689). It counts as functional.
The next test addresses T1, Caspase-7 (Homo sapiens, UniProt P55210).
T1 sequence (P55210 whole entry): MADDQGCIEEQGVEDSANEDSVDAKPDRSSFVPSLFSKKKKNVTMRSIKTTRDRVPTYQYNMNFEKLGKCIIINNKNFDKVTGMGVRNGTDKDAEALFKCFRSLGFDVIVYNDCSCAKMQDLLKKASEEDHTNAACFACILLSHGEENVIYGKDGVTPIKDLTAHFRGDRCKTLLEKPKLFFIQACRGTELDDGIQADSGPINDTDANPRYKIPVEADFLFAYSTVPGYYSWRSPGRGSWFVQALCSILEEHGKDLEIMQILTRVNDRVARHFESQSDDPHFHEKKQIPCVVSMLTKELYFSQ
Nature of the test: caspase-7 enzyme inhibition, selectivity check – biochemical, DEVD-R110 fluorescence, cherry-pick, selectivity assay for caspase-6 inhibitor project, dose response (AID 743295). It counts as functional.

A short description of test [2]: reduction of Shn3 3'UTR-driven luciferase in osteoblasts – cell-based, Clone20 osteoblasts, firefly luciferase, cherry-picked, dose response (AID 624132).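 Note: firefly luciferase luminescence from reporter carrying the Shn3 3'UTR in osteoblasts.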 It counts as functional.
In a further test the target is T2, Insulin-degrading enzyme (Homo sapiens, UniProt P14735).
T2 sequence (P14735 whole entry): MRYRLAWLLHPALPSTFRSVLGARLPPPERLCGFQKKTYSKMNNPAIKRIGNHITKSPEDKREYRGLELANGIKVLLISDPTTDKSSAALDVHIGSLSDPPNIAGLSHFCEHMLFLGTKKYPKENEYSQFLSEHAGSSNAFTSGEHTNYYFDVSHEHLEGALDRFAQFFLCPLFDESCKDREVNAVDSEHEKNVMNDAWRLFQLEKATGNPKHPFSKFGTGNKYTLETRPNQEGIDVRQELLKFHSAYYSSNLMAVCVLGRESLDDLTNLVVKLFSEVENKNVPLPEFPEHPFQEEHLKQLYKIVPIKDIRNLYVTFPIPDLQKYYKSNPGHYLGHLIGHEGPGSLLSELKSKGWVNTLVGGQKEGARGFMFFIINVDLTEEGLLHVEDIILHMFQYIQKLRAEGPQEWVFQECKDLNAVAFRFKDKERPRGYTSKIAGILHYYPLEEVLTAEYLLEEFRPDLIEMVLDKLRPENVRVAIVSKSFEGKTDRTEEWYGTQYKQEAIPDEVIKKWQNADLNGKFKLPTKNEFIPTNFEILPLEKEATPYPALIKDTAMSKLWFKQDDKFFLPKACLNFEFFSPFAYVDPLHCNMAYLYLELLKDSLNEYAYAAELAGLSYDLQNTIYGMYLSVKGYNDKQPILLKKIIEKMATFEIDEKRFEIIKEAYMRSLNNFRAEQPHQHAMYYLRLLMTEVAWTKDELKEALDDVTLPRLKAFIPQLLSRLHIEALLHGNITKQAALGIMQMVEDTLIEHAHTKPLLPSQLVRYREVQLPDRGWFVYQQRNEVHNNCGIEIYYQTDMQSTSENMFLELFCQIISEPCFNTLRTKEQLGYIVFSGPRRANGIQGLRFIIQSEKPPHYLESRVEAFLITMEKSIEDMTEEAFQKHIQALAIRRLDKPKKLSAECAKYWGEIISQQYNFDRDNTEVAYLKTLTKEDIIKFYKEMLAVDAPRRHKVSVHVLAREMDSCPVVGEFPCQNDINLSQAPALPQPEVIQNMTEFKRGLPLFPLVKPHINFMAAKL
Nature of the test: cellular IDE activation of Abeta substrate cleavage – fluorescence polarization, HEK cells, dose response (AID 588439). It counts as functional, cell-based. A general note: Fluorescence polarisation rises when a labelled molecule tumbles more slowly, as on binding a larger partner.

For another test, the target named is Nonstructural protein 1 (Influenza A virus, UniProt Q194T2). It counts as functional, Influenza A virus (A/California/07/2009(H1N1)).
In test [3] the target is Ribosomal protein S6 kinase alpha-5 (Homo sapiens, UniProt O75582). It counts as functional.
Ribosomal protein S6 kinase alpha-5, sequence (O75582 whole entry): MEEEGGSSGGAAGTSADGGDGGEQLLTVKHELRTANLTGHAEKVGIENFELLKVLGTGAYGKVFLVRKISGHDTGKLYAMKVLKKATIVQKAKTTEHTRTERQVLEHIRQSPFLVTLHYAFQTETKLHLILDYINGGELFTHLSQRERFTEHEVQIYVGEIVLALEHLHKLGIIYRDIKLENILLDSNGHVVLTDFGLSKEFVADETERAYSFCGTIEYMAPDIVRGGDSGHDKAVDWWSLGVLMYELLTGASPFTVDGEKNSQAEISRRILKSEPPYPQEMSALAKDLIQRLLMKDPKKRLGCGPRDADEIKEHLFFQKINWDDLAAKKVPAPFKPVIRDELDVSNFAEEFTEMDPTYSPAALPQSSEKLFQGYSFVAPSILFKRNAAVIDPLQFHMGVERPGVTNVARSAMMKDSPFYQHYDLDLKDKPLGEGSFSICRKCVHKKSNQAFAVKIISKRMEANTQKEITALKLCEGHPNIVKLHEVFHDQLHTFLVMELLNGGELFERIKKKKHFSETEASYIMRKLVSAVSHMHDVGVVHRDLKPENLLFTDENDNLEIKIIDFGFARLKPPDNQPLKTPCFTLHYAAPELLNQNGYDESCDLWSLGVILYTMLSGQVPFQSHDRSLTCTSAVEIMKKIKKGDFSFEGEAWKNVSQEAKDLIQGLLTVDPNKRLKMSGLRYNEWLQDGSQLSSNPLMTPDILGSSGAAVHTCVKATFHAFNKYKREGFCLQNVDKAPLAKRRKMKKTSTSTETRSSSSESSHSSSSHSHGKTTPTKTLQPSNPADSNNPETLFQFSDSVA
The target in test [4] is Fibroblast growth factor receptor 1 (Homo sapiens, UniProt P11362). It is filed as functional.
For test [5], the target named is Vascular endothelial growth factor receptor 3 (Homo sapiens, UniProt P35916). It is filed as functional.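 Note: value from a kinome-wide profiling panel, with FLT4 as the panel member.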
Test [6] concerns the target Eukaryotic elongation factor 2 kinase (Homo sapiens, UniProt O00418). It counts as functional.
Another test deals with Aurora kinase B (Homo sapiens, UniProt Q96GD4). It counts as functional.
The target in test [7] is Mitogen-activated protein kinase 1 (Homo sapiens, UniProt P28482). It is filed as functional.
Test [8] addresses RAC-gamma serine/threonine-protein kinase (Homo sapiens, UniProt Q9Y243). It is filed as functional.
In test [9] the target is STE20-like serine/threonine-protein kinase (Homo sapiens, UniProt Q9H2G2). It is filed as functional.
For test [10], the target named is cGMP-dependent protein kinase 1 (Homo sapiens, UniProt Q13976). It counts as functional.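 Note: value from a kinome panel screen with PRKG1 as the panel member.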
cGMP-dependent protein kinase 1, sequence (Q13976 whole entry): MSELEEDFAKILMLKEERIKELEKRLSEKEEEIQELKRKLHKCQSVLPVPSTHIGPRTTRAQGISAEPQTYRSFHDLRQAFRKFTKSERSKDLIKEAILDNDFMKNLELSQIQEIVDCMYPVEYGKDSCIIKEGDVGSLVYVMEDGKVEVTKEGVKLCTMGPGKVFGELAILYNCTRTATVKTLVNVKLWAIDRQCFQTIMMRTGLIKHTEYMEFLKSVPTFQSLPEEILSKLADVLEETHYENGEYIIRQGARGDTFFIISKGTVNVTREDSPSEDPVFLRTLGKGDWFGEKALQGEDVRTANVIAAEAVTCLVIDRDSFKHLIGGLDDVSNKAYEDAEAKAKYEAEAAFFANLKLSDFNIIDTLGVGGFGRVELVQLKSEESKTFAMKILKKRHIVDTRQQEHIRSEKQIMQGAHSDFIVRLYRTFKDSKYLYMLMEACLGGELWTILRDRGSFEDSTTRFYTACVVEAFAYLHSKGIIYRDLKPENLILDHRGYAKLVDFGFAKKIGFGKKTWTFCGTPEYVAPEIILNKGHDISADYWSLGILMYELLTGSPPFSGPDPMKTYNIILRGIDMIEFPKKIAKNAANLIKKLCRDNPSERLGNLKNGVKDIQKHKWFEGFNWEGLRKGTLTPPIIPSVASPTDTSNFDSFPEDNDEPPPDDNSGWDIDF
Test [11] addresses Serine/threonine-protein kinase Nek2 (Homo sapiens, UniProt P51955). It is filed as functional.
In test [12] the target is Tyrosine-protein kinase receptor UFO (Homo sapiens, UniProt P30530). It counts as functional.
In test [13] the target is Mitogen-activated protein kinase kinase kinase kinase 2 (Homo sapiens, UniProt Q12851). It is filed as functional.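 Note: measured as one member of a kinome-wide kinase panel, with MAP4K2 as the panel entry.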
Mitogen-activated protein kinase kinase kinase kinase 2, sequence (Q12851 whole entry): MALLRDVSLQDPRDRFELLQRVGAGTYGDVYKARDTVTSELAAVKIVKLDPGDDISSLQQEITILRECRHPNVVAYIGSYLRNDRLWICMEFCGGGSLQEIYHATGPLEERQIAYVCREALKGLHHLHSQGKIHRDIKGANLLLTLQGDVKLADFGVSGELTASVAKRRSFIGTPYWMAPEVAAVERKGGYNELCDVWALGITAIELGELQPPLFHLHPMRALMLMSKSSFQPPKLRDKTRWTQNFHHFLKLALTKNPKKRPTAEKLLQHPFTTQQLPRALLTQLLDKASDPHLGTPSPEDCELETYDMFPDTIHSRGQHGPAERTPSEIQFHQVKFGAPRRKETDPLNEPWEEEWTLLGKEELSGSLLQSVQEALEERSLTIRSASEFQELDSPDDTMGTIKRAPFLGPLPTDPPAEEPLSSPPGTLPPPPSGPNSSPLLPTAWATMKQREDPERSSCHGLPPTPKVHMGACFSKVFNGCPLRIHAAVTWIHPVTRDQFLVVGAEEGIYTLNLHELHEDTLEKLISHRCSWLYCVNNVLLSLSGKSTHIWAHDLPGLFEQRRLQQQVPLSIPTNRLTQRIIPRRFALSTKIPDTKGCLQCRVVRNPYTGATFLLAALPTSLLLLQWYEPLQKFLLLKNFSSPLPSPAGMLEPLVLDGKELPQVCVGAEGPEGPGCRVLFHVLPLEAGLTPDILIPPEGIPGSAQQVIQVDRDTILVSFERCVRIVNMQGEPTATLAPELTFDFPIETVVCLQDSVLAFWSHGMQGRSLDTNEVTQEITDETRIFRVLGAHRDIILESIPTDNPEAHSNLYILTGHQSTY
The target in test [14] is Serine/threonine-protein kinase PLK1 (Homo sapiens, UniProt P53350). It is filed as functional.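 Note: PLK1 measured as one member of a kinome-wide profiling panel.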
Serine/threonine-protein kinase PLK1, sequence (P53350 whole entry): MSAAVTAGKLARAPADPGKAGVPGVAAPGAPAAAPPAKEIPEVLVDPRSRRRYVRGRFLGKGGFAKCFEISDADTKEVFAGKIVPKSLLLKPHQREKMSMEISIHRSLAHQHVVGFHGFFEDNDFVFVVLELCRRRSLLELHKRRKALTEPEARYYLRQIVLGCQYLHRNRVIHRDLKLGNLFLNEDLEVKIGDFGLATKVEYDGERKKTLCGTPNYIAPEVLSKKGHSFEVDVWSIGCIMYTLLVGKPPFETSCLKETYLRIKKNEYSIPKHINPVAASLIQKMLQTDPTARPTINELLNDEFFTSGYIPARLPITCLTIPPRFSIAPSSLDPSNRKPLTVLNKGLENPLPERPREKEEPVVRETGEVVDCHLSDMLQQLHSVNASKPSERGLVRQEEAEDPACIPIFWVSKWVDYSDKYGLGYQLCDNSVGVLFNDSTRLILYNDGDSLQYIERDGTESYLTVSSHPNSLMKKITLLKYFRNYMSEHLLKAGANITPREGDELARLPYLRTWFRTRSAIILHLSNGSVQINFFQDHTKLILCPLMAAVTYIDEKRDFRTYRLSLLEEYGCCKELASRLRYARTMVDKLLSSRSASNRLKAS
Test [15] has as its target BDNF/NT-3 growth factors receptor (Homo sapiens, UniProt Q16620). It counts as functional.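 Note: NTRK2 measured as one member of a broad kinome-wide kinase profiling panel.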
Test [16] addresses Mitogen-activated protein kinase kinase kinase kinase 4 (Homo sapiens, UniProt O95819). It counts as functional.
Test [17] concerns the target Dual specificity tyrosine-phosphorylation-regulated kinase 1A (Homo sapiens, UniProt Q13627). It is filed as functional.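 Note: measured against DYRK1A as one member of a broad kinome profiling panel.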
Test [18] concerns the target Serine/threonine-protein kinase D3 (Homo sapiens, UniProt O94806). It is filed as functional.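 Note: determined within a kinase panel screen, with PRKCN as the panel member.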
Test [19] concerns the target Dual specificity protein kinase CLK4 (Homo sapiens, UniProt Q9HAZ1). It is filed as functional.
Test [20] concerns the target Tyrosine-protein kinase Lck (Homo sapiens, UniProt P06239). It counts as functional.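 Note: lck was assayed as one member of a kinase panel.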
Test [21] addresses Proto-oncogene tyrosine-protein kinase Src (Homo sapiens, UniProt P12931). It counts as functional.

The source made the active and inactive calls.

BDNF/NT-3 growth factors receptor, sequence (Q16620 whole entry): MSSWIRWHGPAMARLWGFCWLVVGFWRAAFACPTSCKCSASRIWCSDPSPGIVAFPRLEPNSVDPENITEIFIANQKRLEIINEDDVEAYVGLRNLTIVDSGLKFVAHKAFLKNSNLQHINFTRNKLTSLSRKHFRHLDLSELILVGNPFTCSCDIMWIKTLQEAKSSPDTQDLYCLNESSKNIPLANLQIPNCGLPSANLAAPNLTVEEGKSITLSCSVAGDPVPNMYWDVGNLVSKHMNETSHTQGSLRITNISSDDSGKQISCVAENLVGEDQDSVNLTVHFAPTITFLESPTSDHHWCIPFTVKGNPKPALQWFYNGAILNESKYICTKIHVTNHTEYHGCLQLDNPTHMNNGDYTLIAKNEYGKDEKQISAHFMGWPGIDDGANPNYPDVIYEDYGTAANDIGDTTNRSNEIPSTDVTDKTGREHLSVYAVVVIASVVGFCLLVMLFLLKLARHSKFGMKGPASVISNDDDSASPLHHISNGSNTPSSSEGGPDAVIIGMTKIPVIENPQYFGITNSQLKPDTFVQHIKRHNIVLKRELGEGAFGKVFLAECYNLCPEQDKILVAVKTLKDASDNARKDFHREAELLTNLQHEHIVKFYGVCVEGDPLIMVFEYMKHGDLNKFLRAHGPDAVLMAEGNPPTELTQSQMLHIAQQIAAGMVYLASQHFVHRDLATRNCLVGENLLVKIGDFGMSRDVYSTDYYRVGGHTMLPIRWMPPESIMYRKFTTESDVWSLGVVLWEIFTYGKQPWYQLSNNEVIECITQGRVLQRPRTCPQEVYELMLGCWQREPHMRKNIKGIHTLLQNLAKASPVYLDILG
Mitogen-activated protein kinase kinase kinase kinase 4, sequence (O95819 whole entry): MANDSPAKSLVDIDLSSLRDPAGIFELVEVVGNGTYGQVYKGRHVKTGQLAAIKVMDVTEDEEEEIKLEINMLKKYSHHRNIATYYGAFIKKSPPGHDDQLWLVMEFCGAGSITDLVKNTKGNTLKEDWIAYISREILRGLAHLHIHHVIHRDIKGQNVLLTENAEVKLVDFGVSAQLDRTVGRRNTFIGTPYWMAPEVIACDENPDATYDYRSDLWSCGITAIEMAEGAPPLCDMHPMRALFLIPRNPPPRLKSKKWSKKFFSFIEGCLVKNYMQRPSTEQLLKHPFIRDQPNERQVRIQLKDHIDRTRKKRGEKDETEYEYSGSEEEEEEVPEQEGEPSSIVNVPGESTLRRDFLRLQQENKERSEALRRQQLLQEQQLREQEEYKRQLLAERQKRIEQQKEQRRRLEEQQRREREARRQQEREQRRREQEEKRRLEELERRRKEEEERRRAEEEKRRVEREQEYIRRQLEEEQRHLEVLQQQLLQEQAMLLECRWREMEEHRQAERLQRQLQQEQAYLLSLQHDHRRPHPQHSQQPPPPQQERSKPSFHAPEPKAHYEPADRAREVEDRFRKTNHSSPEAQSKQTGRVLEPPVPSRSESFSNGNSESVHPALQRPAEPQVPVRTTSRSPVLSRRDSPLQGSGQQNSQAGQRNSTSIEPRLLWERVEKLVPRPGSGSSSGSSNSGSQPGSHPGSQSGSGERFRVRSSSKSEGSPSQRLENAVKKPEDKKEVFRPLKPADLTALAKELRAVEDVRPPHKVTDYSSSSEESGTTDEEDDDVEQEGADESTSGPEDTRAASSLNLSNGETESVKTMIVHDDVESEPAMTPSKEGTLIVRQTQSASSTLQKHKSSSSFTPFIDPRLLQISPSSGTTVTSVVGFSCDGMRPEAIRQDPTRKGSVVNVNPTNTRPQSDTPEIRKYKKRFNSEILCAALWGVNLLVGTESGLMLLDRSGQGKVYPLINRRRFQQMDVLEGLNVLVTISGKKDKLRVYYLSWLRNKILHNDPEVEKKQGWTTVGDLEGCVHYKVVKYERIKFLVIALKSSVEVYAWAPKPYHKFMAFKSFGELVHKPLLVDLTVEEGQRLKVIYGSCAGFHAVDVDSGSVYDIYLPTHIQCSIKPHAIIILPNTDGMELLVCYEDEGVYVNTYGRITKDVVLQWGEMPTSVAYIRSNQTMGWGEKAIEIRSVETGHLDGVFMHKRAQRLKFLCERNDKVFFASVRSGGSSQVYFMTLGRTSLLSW

As for `Cc1ccc(C(=O)NC2(O)C(=O)c3ccccc3C2=O)cc1C`, the IC50 (in general, the midpoint of a concentration-inhibition curve) in test [1] is listed as > 67 µM (not active).
For `O=[N+]([O-])c1c(Nc2ccccn2)cc(Cl)c2nonc12`, at Genome polyprotein, the half-inhibitory concentration (IC50) was 20 µM (active). In addition, the AC50 (usually the concentration giving half of the maximal activity seen) at Caspase-7 is 20.3 µM (active).
As for `CC[C@@H](C)[C@H](CNC)NC[C@@H](Cc1cccc2ccccc12)NCCc1cccc(C(F)(F)F)c1`, the half-maximal activity concentration (AC50) in [2] was 8.08 µM (active). In addition, the concentration for a half-maximal effect (EC50) (usually the concentration that produces a half-maximal response) at Insulin-degrading enzyme is 6.41 µM (active).
`Cc1ccc(S(=O)(=O)/N=C2\C=C(Nc3cccc(C(=O)O)c3)C(=O)c3ccccc32)cc1`: the IC50 on Nonstructural protein 1 was 19.9 µM (active).
Regarding `CC(C)(CO)CNc1nccc(-c2c(-c3ccc(F)cc3)nc3c(CC4CC4)nccn23)n1`, the Ki (commonly a dissociation constant, usually derived from enzyme kinetics or from competition with a known ligand) in test [3] was > 2 µM (inactive); in test [4], > 5.01 µM (inactive); in [5] it was > 6.31 µM (inactive); in [6], > 3.98 µM (inactive); at Aurora kinase B, > 6.31 µM (inactive); in test [7], 6.31 µM (active). In addition, the Ki is > 10 µM (inactive) in [8]; > 10 µM (inactive) in test [9]; > 2 µM (inactive) in test [10]; > 10 µM (inactive) in test [11]; > 2 µM (inactive) in [12]; > 6.31 µM (inactive) in test [13]. Besides, the Ki in test [14] is > 7.94 µM (inactive); in [15], > 5.01 µM (inactive); in test [16], 3.98 µM (active); in test [17] it was 2.51 µM (active); in [18] it was 5.01 µM (active); in test [19], 3.98 µM (active). Moreover, the Ki in [20] is > 2.51 µM (inactive); in test [21], > 2 µM (inactive).

Values taken from ChEMBL document CHEMBL1201862, “PubChem BioAssay data set” (2004).
